# Experiments:
# [1] = tested on: Lewis lung carcinoma (LLC); assay: In vivo antitumor activity in Lewis lung carcinoma; conditions: LLC in C57BL mice; for Average tumor weight (mean ± SD): 20 mg kg^−1 daily orally day 7–14, day 15; for Inhibition of tumor growth: 20 mg kg^−1 daily orally day 7–14, day 15, referred to control animals
# Protocol: Xenograft LLC tumors were grown in C57BL mice that were subsequently treated with […] of either Pt(IV) complex. Pt(IV) prodrugs were administered by oral gavage by taking advantage of their excellent stability, enabling in vivo oral formulation making platinum therapy safer lessening side effects and partially overcoming resistance to platinum(II) drugs, [35]. The schedule of Pt(IV) prodrug administration in vivo was initially determined by assessing the total dose that could be injected without undue toxicity in nontumor-bearing C57BL mice. From day 7 after tumor inoculation, when tumors became visible, tumor-bearing mice received daily doses of the Pt(IV) derivatives (20 mg kg^−1, by oral gavage).
# The LLC cell line was purchased from ECACC, United Kingdom. The LLC cell line was maintained in DMEM (Euroclone) supplemented with 10% heat-inactivated fetal bovine serum (FBS; Euroclone), 10 mM L-glutamine, 100 U mL^−1 penicillin, and 100 μg mL^−1 streptomycin in a 5% CO2 air incubator at 37 °C. The LLC was implanted intramuscularly (im) as a 2 × 10^6 cell inoculum into the right hind leg of 8-week old male and female C57BL mice (24 ± 3 g body weight). […] At day 15, animals were sacrificed, the legs were amputated at the proximal end of the femur, and the inhibition of tumor growth was determined according to the difference in weight of the tumor-bearing leg, and the healthy leg of the animals expressed as a percentage referred to the control animals. Body weight was measured every two days and was taken as a parameter for systemic toxicity. All the values are the means ± SD of not less than three measurements.
# [2] = Biodistribution of platinum after oral administration (ICP-MS); type: in vivo, C57BL mice; conditions: LLC-bearing mice; for Percentage of the administered drug reaching the tumor mass / Tissue platinum distribution: single oral dose 20 mg kg-1, 4 h; for Platinum concentration in blood: whole blood, single oral dose 20 mg kg-1, 1 and 4 h
# From the text: It was previously shown for a similar series of dicarboxylato Pt(IV) compounds that organic chains of intermediate length offer the best compromise between lipophilicity and water solubility for oral administration. […] The details of these experiments and their results are described in the Supplementary material and Supplementary Fig. S2. […] In contrast, platinum scarcely accumulated in intestine and lung. Noteworthy, a slightly higher platinum content was found in the tumor mass in the mice treated with Pt(IV)diOA than in those treated with Pt(IV)diVPA. […]
# Biodistribution after oral administration
# For Pt(IV) complexes having axial carboxylato ligands, the lipophilicity increases as the number of carbon atoms in the chain increases. This lipophilicity increase offers a beneficial effect on the cellular accumulation and in vitro cytotoxic potency up to a point where the drop in water solubility impedes the administration of the drugs (around C8-C10 carbon chains)1,2.
# Moreover, excessive lipophilicity can hinder transport of such Pt(IV) derivatives in vivo across intestinal epithelial cells making them more vulnerable to hepatic metabolism.
# It was previously shown for a similar series of dicarboxylato Pt(IV) compounds (except the VPA-derivative) that organic chains of intermediate length offer the best compromise between lipophilicity and water solubility for oral administration3. To better understand the biodistribution properties of the Pt(IV) complexes, following administered by oral gavage in a -1 single dose (20 mg kg ), tissue samples collected from LLC-bearing mice were analyzed by ICP-MS. After 1 and 4 h, blood samples were collected and subsequently animals were sacrificed, and tissue samples were collected. The platinum levels in tumor, kidney, liver, intestine, lung and whole blood aliquots are shown in Fig. S2, panels A and B. It is important to recall that using this protocol it is possible to estimate only the overall Pt content and not its oxidation state or speciation [i.e. Pt(IV) metabolites or Pt(II) metabolites produced by reduction and further interactions]. […]
# Biodistribution after oral administration. For in vivo kinetic experiments, 8-10 week old C57BL mice (24 ± 3 g body weight) received the drugs as an oral gavage single dose of -1 butanoato, hexanoato, octanoato and valproate Pt(IV) complexes (20 mg kg , dissolved in a vehicle solution composed of 20% Cremophor EL (v/v), 20% PEG400 (v/v) and 60% saline solution (v/v)). At each time point (1 and 4 h, respectively), animals were anesthetized, and blood was collected by a vain tail puncture. In addition, samples of organs (kidney, liver, lung and intestine) and tumor were collected at 4 h and stored at −20 °C. Blood, organ samples and tumor were subjected to quantitative determination of platinum content.−1 The samples were treated with highly pure nitric acid ([Pt] ≤ 0.01 μg kg TraceSELECT Ultra, Sigma Chemical Co.) and transferred into a microwave Teflon vessel. Subsequently, samples were submitted to the standard procedure using a speed microwave. After cooling, each mineralized sample was analyzed for platinum by ICP-MS (ThermoOptek X Series 2). Instrumental settings were optimized to achieve maximum sensitivity for platinum. For quantitative determination, the most abundant isotopes of platinum and indium (used as internal standard) were measured at m/z 195 and 115, respectively.
# Accumulation of platinum in tumor cells treated with Pt(IV) complexes and cisplatin (in cellulo experiments) in the absence of serum. A2780 cells were seeded in 10 mm Petri dishes and treated with the platinum complexes (10 μM) for 4 h in complete medium, i.e. + 10 % FBS (HyClone, GE Healthcare). At time zero, 100 μL of medium was taken out from each sample to check the extracellular Pt concentration. At the end of the exposure, cells were washed three times with phosphate-buffered saline (PBS), detached from the Petri dishes using 0.05% Trypsin 1X + 2% EDTA (HyClone, GE Healthcare) and harvested in fresh […]
Compound,Average tumor weight (mean ± SD) [1] [g],Inhibition of tumor growth [1] [%],Percentage of the administered drug reaching the tumor mass [2],Tissue platinum distribution [2],Platinum concentration in blood [2]
"CCCCCCCC(=O)[O][Pt]([NH2])([NH2])([Cl])([Cl])[O]C(=O)CCCCCCC [Pt(IV)diOA, cis, cis, trans-[Pt(IV)(NH3)2Cl2(OA)2]]",0.025 ± 0.03,95,about 18%,the highest platinum concentrations were found in liver followed by tumor tissue and kidney,around 0.5 μg Pt mL^−1
"CCCC(CCC)C(=O)[O][Pt]([NH2])([NH2])([Cl])([Cl])[O]C(=O)C(CCC)CCC [Pt(IV)diVPA, cis, cis, trans-[Pt(IV)(NH3)2Cl2(VPA)2]]",0.174 ± 0.08,68,~10%,the highest platinum concentrations were found in liver followed by tumor tissue and kidney,around 0.5 μg Pt mL^−1

# — publication PMC5473904, “Epigenetic and antitumor effects of platinum(IV)-octanoato conjugates” (Scientific Reports, 2017)
